Data from publication PMC9866541, “Flavonoid Derivatives as New Potent Inhibitors of Cysteine Proteases: An Important Step toward the Design of New Compounds for the Treatment of Leishmaniasis” (Microorganisms, 2023).
Read-outs that look alike come from different tables or passages of the source.

Columns and labels:
rCPB2.8 [1] = target: T1, rCPB2.8 (Leishmania mexicana, UniProt P36400); test: Screening of inhibitory activity on rCPB2.8 (Z-FR-MCA hydrolysis); assay type: biochemical; settings: for inhibition at 5 µM / inhibition at 1 µM: read-out: Inhibition of rCPB2.8 enzymatic activity
T1 construct: recombinant enzymes (r) lacking the C-terminal region
T1 sequence (P36400 126-343): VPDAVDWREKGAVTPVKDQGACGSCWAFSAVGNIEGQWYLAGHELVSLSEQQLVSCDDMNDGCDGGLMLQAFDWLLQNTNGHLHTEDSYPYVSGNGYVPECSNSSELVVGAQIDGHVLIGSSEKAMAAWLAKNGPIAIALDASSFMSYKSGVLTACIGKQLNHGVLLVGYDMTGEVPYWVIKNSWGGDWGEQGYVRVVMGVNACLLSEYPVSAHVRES
Experimental: The screening assays for the inhibitory activity of the compounds in the rCPB2.8, rCPB3, and rH84Y enzymes were performed using 100 mM sodium acetate buffer containing 5 mM EDTA, 100 mM NaCl, 0.01% Triton X-100, and 20% glycerol, at pH 5.5. Enzyme aliquots were pre-incubated with 5 mM DTT for 5 min at 37 °C. After checking the initial rate of the reaction corresponding to the control, the enzymatic rate was measured at two concentrations of compounds, 1 µM and 5 µM. Enzyme activity was monitored by hydrolysis of the substrate Z-FR-MCA by measuring the fluorescence at λEx = 360 nm and λEm = 480 nm on a Hitachi F2700 spectrofluorometer, obtaining the rate values in UAF/min (arbitrary fluorescence units by minute).

NIH/3T3 fibroblasts = test: Cytotoxicity on mammalian cells (sulphorhodamine B); assay type: cell-based; settings: for NIH/3T3 Cells GL50: 48 h, concentration that inhibited cell growth by 50%
Experimental: The cytotoxic effect of the test samples was evaluated on NIH/3T3 fibroblasts, obtained from the Rio de Janeiro Cell Bank (Brazil). Cells were seeded in 96-well plates ([…]). After 24 h of fixation, cells were incubated for 48 h with test samples at 0.25–250 µg/mL, in triplicate. […] Doxorubicin (0.025–25 µg/mL was used as a positive control. Cells were fixed by adding 20% trichloroacetic acid and were subsequently stained with sulphorhodamine B (0.1%) diluted in acetic acid after 48 h of exposure. Absorbance values were read on the PT-READER microplate instrument (Thermoplate®), and growth percentages were calculated according to procedures in the literature. Cytotoxicity activity was expressed as the concentration of drug that inhibited cell growth by 50% (GL50), and growth was determined by nonlinear regression using Origin 6.0 software (OriginLab). The statistical significance was analysed using an unpaired Student’s t-test or a one-way analysis of variance. A p-value < 0.05 was considered statistically relevant. In addition, the SI was calculated using the ratio between cytotoxicity in NHI-3T3 cells (GL50) and activity in the parasite forms (IC50).

[2] = test system: Promastigote forms of L. amazonensis; test: Antipromastigote assay (MTT); assay type: cell-based, Leishmania amazonensis; settings: for SI (selectivity index): GL50 in NIH/3T3 cells / IC50 in extracellular promastigotes; for IC50: Leishmania amazonensis, 72 h, read-out: Promastigote IC50
Experimental: A standard strain of Leishmania (Leishmania amazonensis) (IFLA/BR/1967/PH8) was used for the evaluation of in vitro antileishmanial activity. The promastigote forms were grown in Schneider’s insect medium (Sigma-Aldrich®, SP/Brazil) supplemented with 20% foetal bovine serum (Sigma-Aldrich®, SP/Brazil), 10,000 U/mL penicillin, and 10 mg/mL streptomycin (Sigma-Aldrich®, SP/Brazil).
Promastigote forms of L. amazonensis in the log growth phase (10^e6 parasites/mL) were added to 96-well plates and incubated in sextuplicate with the test samples (0.25–10.0 µg/mL). The microplates were incubated at 26 °C for 72 h. Cell viability was assessed by adding 5 mg/mL of MTT ([3-(4,5-dimethylthiazol-2-yl)-2,5-diphenyltetrazolium bromide] (Sigma-Aldrich® SP/Brazil). Results were expressed as the half-maximal inhibitory concentration (IC50) calculated by a nonlinear dose–response regression curve using the statistical program GraphPad PRISM 5.0. Pentamidine (Sigma-Aldrich ® SP/Brazil; 0.25–10 µg/mL) was used as a positive control, and pure Schneider culture medium was used as a negative control.

rCPB2.8 [3] = target: T1, rCPB2.8; test: Determination of IC50 on rCPB2.8 (Z-FR-AMC); assay type: biochemical
Experimental: Cysteine proteases rCPB2.8, rCPB3, and rH84Y were assayed in 100 mM sodium acetate buffer containing 5 mM EDTA, 100 mM NaCl, 0.01% Triton X-100, and 20% glycerol, at pH 5.5. The enzymes were pre-incubated in the presence of 5 mM DTT for 5 min at 37 °C in a 1 mL final volume with constant stirring. Enzyme activities were monitored using fluorogenic probe Z-FR-AMC (9.25 µM final concentration), and the fluorescence was monitored by spectrofluorometry using fluorometer F2700 (Hitachi, Tokyo, Japan) set to λEx = 360 nm and λEm = 480 nm. The IC50 evaluation was performed using a progressive increase in the concentration of the compounds; the IC50 values were calculated using nonlinear regression, and the data were analysed by Grafit 5.0.13 software using Equation (1). (1) y=100%/1+(x/IC50)^S.

rH84Y [4] = assay type: biochemical, Leishmania mexicana; settings: ratio of IC50 values
rH84Y [5] = target: rH84Y (Leishmania mexicana, UniProt P36400, D186N/D189S/H209Y/N185D, form not given); test: Enzyme kinetics and mechanism of inhibition of rH84Y; assay type: biochemical; as to mechanism: key: NCPC: non-competitive inhibition with positive cooperativity; SLNC: simple linear non-competitive inhibition
rH84Y (Leishmania mexicana, UniProt P36400, D186N/D189S/H209Y/N185D, form not given), sequence (P36400 126-343 D186N/D189S/H209Y/N185D): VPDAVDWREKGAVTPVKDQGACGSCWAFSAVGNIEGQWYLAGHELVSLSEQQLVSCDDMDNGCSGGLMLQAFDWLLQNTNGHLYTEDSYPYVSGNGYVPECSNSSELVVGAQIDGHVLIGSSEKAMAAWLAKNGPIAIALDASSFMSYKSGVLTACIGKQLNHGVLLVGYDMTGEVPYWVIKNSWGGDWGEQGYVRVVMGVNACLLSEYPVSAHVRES
Experimental: (§1) Studies of cysteine proteases rCPB2.8, rCPB3, and rH84Y inhibition kinetics were performed in different concentrations of Z-FR-AMC in the presence and absence of compounds using 100 mM sodium acetate buffer containing 5 mM EDTA, 100 mM NaCl, 0.01% Triton X-100, and 20% glycerol, at pH 5.5. Aliquots of the enzymes were pre-incubated with 5 mM DTT for 5 min at 37 °C. For every kinetic measurement, the compounds were pre-incubated with each enzyme for 10 min before adding the substrate. All kinetic assays were performed in duplicate. Inhibition constants were determined using different equations, depending on the inhibition mechanism. The assumed KM values of rCPB2.8, rCPB3, and rH84Y for Z-FR-AMC were 3.23 µM, 2.99 µM, and 2.80 µM, respectively. The data of the activity rate and substrate concentration generated rectangular hyperbolic profiles that were linearised using the Lineweaver–Burk double-reciprocal plot. The replot profiles of the slope vs. inhibitor and intercept vs. inhibitor provided Ki and αKi parameters, respectively. If the replots present a parabolic profile, the system involves the participation of a second molecule of the compound, which can bind the enzyme complexed to the first compound (EI), forming IEI, and bind to the ESI complex, forming IESI. Linearisation is required, generating the 1/Kslope vs. inhibitor and 1/Kintercept vs. inhibitor replots, according to Equations (2) and (3). (2) 1/Kslope=1/Ki+[I]/βKi2, (3) 1/Kintercept=1/αKi+[I]/αγKi2, where Ki is the inhibitory constant, [I] is the concentration of inhibitor, α is the factor of formation of the ESI complex (enzyme–substrate–inhibitor complex), β is the factor of formation of the IEI complex (inhibitor–enzyme–inhibitor complex), and γ is the factor of formation of the IESI complex (inhibitor–enzyme–substrate–inhibitor complex) according to the general mechanism (Figure 8). Furthermore, β and γ measure the cooperativity between the binding of the first and second inhibitor molecules to form IEI and IESI, respectively.

rCPB3 = rCPB3 (Leishmania mexicana, UniProt P36400, D186N/D189S/N185D, form not given); test: Enzyme kinetics and mechanism of inhibition of rCPB3; assay type: biochemical; as to mechanism: key: NCPC: non-competitive inhibition with positive cooperativity; SLNC: simple linear non-competitive inhibition
rCPB3, sequence (P36400 126-343 D186N/D189S/N185D): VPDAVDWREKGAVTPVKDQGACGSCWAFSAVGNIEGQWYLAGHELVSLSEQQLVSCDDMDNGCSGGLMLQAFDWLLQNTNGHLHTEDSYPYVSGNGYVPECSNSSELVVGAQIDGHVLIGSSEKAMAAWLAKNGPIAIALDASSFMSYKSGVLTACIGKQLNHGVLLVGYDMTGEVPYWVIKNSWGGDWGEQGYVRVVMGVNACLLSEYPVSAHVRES
Experimental: as §1

rCPB2.8 [6] = target: T1, rCPB2.8; test: Enzyme kinetics and mechanism of inhibition of rCPB2.8; assay type: biochemical; as to mechanism: key: NCPC: non-competitive inhibition with positive cooperativity; SLNC: simple linear non-competitive inhibition
Experimental: as §1

[7] = L. amazonensis promastigotes, 26 °C, MTT, highest concentration tested 10 µg/mL
[8] = factor of formation of the ESI complex

Row | SMILES | inhibition at 5 µM (rCPB2.8 [1]) [%] | NIH/3T3 Cells GL50 (NIH/3T3 fibroblasts) [µM] | SI (selectivity index) [2] | IC50 [2, 7] | IC50 (rCPB2.8 [3]) [µM] | inhibition at 1 µM (rCPB2.8 [1]) [%] | IC50 [2] [µg/mL] | also measured
1 | CN(C)c1ccc(/C=C/C(=O)c2ccc(Cl)cc2)cc1 [Compound 1c, (E)-1-(4-chlorophenyl)-3-(4-(dimethylamino)phenyl)prop-2-en-1-one] | 91.6 | >874.83 | >767.39 | 1140 nM | 2.75 ± 0.18 | – | – | –
2 | CN(C)c1ccc(/C=C/C(=O)c2cc(F)ccc2O)cc1 [Compound 4c, (E)-3-(4-(dimethylamino)phenyl)-1-(5-fluoro-2-hydroxyphenyl)prop-2-en-1-one] | – | >876.24 | >1752.48 | 500 nM | 9.88 ± 0.73 | – | – | Cytotoxicity against mammal cells (in words) (NIH/3T3 fibroblasts; NIH/3T3 cells): noncytotoxic; Times more potent in inhibiting rH84Y compared to rCPB3 (rH84Y [4]): 8.74 times
3 | O=c1c(O)c(-c2ccc3c(c2)OCO3)oc2ccccc12 [Compound f12b, 2-(benzo[d][1, 3]dioxol-5-yl)-3-hydroxy-4H-chromen-4-one] | 77.5 | >885.74 | – | > 10 µg/mL | 5.23 ± 0.32 | 69.2 | – | Mechanism (rH84Y [5]): SLNC; αKi (rH84Y [5]): 6.06 ± 0.24 µM; α (rH84Y [5]; [8]): 1; Mechanism (rCPB3): SLNC; αKi (rCPB3): 13.7 ± 1.2 µM; α (rCPB3; [8]): 1; Mechanism (rCPB2.8 [6]): NCPC; αKi (rCPB2.8 [6]): 24.9 ± 2.3 µM; Ki (rCPB2.8 [6]; Ki): 39200 ± 4100 nM; α (rCPB2.8 [6]; [8]): 0.634; β (rCPB2.8 [6]; factor of formation of the IEI complex): 0.029; γ (rCPB2.8 [6]; factor of formation of the IESI complex): 0.013; Ki (rCPB2.8 [6]; βKi): 1170 ± 120 nM; Ki (rCPB2.8 [6]; γKi): 510 ± 90 nM
4 | COc1ccc(/C=C/C(=O)c2ccc(Cl)cc2)cc1 [Compound 1a, (E)-1-(4-chlorophenyl)-3-(4-methoxyphenyl)prop-2-en-1-one] | – | 294.13 | – | – | 13.7 ± 0.74 | 82 | > 10 | –
5 | CN(C)c1ccc(/C=C/C(=O)c2ccccc2O)cc1 [Compound 2c, (E)-3-(4-(dimethylamino)phenyl)-1-(2-hydroxyphenyl)prop-2-en-1-one] | 25.6 | >935.21 | – | – | 11.7 ± 0.38 | – | > 10 | rCPB2.8 activity (increased to) (rCPB2.8 [1]; 1 µM compound, activity relative to control): 141.71%
